One experiment concerns HNSCC cell lines. As to the kind of experiment: Sensitivity of HNSCC cell lines to EGFR-TKi after silencing EPLIN. The class given is cell-based. As to conditions: siRNA silencing of EPLIN; FIG. 6C.
A further experiment has as its system HNSCC patient samples. As to the kind of experiment: Cancer drug sensitivity testing on nonselected HNSCC patient samples (Misvik Oy). The class given is cell-based. As to conditions: for drug sensitivity: EPLIN positive HNSCC, more than 160 cancer drugs tested, all results not shown. The text has this:
Our proof-of-concept study featured testing the sensitivity of more than 160 cancer drugs on nonselected HNSCC patient samples using an internationally validated method (Misvik Oy, Turku, Finland).

Data on six molecules can be found in patent US20230136717A1, “EPLIN AS A BIOMARKER FOR CANCER” (Turun yliopisto, priority 2020, published 2023).

As for `CNC(=O)CN1CCC(Oc2cc3c(Nc4cccc(Cl)c4F)ncnc3cc2OC)CC1` [AZD8931], in the experiment on HNSCC cell lines, the “sensitivity of HNSCC cells to the drug on silencing EPLIN expression” value (from here on “sensitivity of HNSCC cells to the drug”) is recorded as “decreases sensitivity”. Consider `C=CC(=O)Nc1cc(Nc2nccc(-c3cn(C)c4ccccc34)n2)c(OC)cc1N(C)CCN(C)C` [AZD9291], for which, in the experiment on HNSCC cell lines, the “sensitivity of HNSCC cells to the drug” value is “decreases sensitivity”. In the case of `C=CC(=O)Nc1cc2c(Nc3ccc(F)c(Cl)c3)ncnc2cc1OCCCN1CCOCC1` [Canertinib], the drug sensitivity result in the experiment on HNSCC patient samples is given as “highest sensitivity”. Take `C#Cc1cccc(Nc2ncnc3cc(OCCOC)c(OCCOC)cc23)c1` [Erlotinib]: in the experiment with HNSCC cell lines, the “effect relative to the other tested EGFR-TKis” value is given as “best result” and the “sensitivity of HNSCC cells to the drug” value was “decreases sensitivity”. Also, the drug sensitivity result with HNSCC patient samples is “highest sensitivity”. Moreover, the “function as precision therapy” value with HNSCC patient samples (several EPLIN positive HNSCC patients, FIG. 7A) is recorded as “proven to function as precision therapy”. For the molecule `COc1cc2ncnc(Nc3ccc(F)c(Cl)c3)c2cc1OCCCN1CCOCC1` [Gefitinib], the drug sensitivity result in the experiment on HNSCC patient samples was “highest sensitivity”.

For `CCOc1cc2ncc(C#N)c(Nc3ccc(OCc4ccccn4)c(Cl)c3)c2cc1NC(=O)/C=C/CN(C)C` [Neratinib], the “sensitivity of HNSCC cells to the drug” value with HNSCC cell lines is reported as “decreases sensitivity”.
